Data published in patent US6423519B1, “Compositions and methods for inhibiting fungal growth” (GPC Biotech Inc., priority 1998, dated 2002).
Read-outs that look alike come from different tables or passages of the source. Peptide text beside a SMILES is read from it.

Columns and labels:
[1] = molecular target: T1, C. albicans GGPTase (Candida albicans, UniProt Q8J224+Q9Y764); experiment: biochemical
T1 sequence (Q9Y764 1-398): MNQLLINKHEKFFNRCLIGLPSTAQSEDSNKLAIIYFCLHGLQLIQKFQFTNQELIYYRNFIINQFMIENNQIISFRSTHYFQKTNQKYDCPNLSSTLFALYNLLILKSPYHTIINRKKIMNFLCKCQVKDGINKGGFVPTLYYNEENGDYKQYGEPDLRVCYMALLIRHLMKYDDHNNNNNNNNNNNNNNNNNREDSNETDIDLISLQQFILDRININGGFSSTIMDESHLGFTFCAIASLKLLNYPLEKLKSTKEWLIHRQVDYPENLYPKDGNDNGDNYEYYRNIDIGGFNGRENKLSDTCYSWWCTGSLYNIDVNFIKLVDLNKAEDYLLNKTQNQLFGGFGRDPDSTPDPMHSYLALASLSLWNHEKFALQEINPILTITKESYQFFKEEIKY
T1 sequence (Q8J224 1-306): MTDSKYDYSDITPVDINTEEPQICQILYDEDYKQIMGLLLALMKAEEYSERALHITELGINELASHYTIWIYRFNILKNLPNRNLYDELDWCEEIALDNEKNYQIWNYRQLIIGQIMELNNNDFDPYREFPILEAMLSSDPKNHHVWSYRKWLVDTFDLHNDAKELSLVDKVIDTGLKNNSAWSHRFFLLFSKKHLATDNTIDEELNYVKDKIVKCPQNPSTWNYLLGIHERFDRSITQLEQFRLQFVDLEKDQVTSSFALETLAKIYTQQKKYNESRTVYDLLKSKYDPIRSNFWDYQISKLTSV
Procedure: Plate test compounds (10 μL per well) at predetermined concentration in 50% DMSO. For background control (blank) and reaction control (negative), add 10 μL of 200 μM GGPP and 10 μL 50% DMSO, respectively. Prepare assay buffer: 50 mM Tris, pH7.5, 20 mM KCL, 5 mM MgCl2, 5 μM ZnCl2, 0.5 mM Zw(3-14), 2 mM DTT and 0.1 mg/mL BSA.
Add 20 μL of C. albicans GGPTase and ^3H-GGPP in assay buffer to test compound. Preincubate enzyme and ^3H-GGPP with test compound for 15 minutes at room temperature. Add 20 μL C. albicans Rho in assay buffer. Incubate for 30 minutes at room temperature. Final assay conditions are 2 nM C. albicans GGPTase, 250 nM ^3H-GGPP and 250 nM C. albicans Rho.
Add 100 μL 15 mM GGPP, 50 mM Tris, pH7.0 and 2% BSA to quench reaction. Transfer reaction to Nickel chelate FlashPlate. Allow his-tagged C. albcians Rho to capture onto plate. Rinse plate 1× with 200 μL 20 mM Tris, pH7.0. Read in TOPCOUNT.

[2] = molecular target: human GGTase (Homo sapiens, UniProt P53609); experiment: Human GGTase inhibition (Hu GG); type: biochemical
Source text: As described below, a variety of different compounds were synthesized and tested for inhibitory activity against human and Candida GGTase. Exemplary synthesis schemes for generating prenyltransferase inhibitors useful in the methods and compositions of the present invention are shown in FIGS. 1-56. Tables 1-5 provide Structure-Activity relationship (SAR) data for several different classes of prenyltransferase inhibitors.

[3] = molecular target: Hu FT (Homo sapiens, UniProt P49356); experiment: Human FT inhibition (Hu FT); type: biochemical; conditions: Table 3 Piperidine Analogs
[4] = Table 3 Piperidine Analogs, read-out: IC50 (nM) Ca GG
[5] = Table 3 Piperidine Analogs, read-out: IC50 (nM) Hu GG
[6] = Table 1, read-out: IC50 (nM) Hu GG
[7] = Table 1 Peptide Analogs, read-out: IC50 (nM) Hu GG
[8] = read-out: IC50 (nM) Ca GG, Table 1
[9] = Table 1, read-out: IC50 (nM) Ca GG
[10] = Table 1 Peptide Analogs, read-out: IC50 (nM) Ca GG
[11] = Table 5, read-out: IC50 (nM) Candida
[12] = Table 5, read-out: IC50 (nM) Human

Compound	IC50 [1, 4]	IC50 [2, 5]	IC50 [1]	IC50 [2, 6]	IC50 [2, 7]	further results
N[C@@H](CS)C(=O)N1CCC(C(=O)N[C@@H]2C[C@H]2c2ccccc2)(c2ccccc2)CC1 (relative stereo) [Compound 53v]	< 10 nM	> 1000 nM	–	–	–	IC50 [3]: > 1000 nM
CC(C)C[C@H](NC(=O)[C@H](Cc1cccc2ccccc12)NC(=O)[C@H](CCO)NC(=O)[C@@H](N)CS)C(=O)O [Compound 5a] (HELM PEPTIDE1{C.[O=C([C@H](CCO)N[*:1])[*:2]].[O=C([C@H](Cc1cccc2ccccc12)N[*:1])[*:2]].L}$$$$V2.0)	–	–	< 500 nM	< 500 nM	< 500 nM	–
CC(C)C[C@H](NC(=O)[C@H](Cc1cccc2ccccc12)NC(=O)[C@H](CN)NC(=O)[C@@H](N)CS)C(=O)O [Compound 5b] (HELM PEPTIDE1{C.[NC[C@H](N[*:1])C(=O)[*:2]].[O=C([C@H](Cc1cccc2ccccc12)N[*:1])[*:2]].L}$$$$V2.0)	–	–	< 10 nM	< 500 nM	< 500 nM	IC50 [1, 8]: < 10 nM
CC(C)C[C@H](NC(=O)[C@H](Cc1cccc2ccccc12)NC(=O)[C@@H](N)CNC(=O)[C@@H](N)CS)C(=O)O [Compound 5c] (HELM PEPTIDE1{[N[C@@H](CN[*:3])C(=O)[*:2]].[O=C([C@H](Cc1cccc2ccccc12)N[*:1])[*:2]].L}|PEPTIDE2{C}$PEPTIDE1,PEPTIDE2,1:R3-1:R2$$$V2.0)	–	–	–	> 1000 nM	> 1000 nM	IC50 [1, 9]: < 1000 nM; IC50 [1, 10]: < 1000 nM
CC(C)C[C@H](NC(=O)[C@H](Cc1cccc2ccccc12)NC(=O)[C@H](CC(=O)O)NC(=O)[C@@H](N)CS)C(=O)O [Compound 5d] (HELM PEPTIDE1{C.D.[O=C([C@H](Cc1cccc2ccccc12)N[*:1])[*:2]].L}$$$$V2.0)	–	–	> 1000 nM	> 1000 nM	> 1000 nM	IC50 [1, 8]: > 1000 nM
CC(C)C[C@H](NC(=O)[C@H](Cc1cccc2ccccc12)NC(=O)CCNC(=O)[C@@H](N)CS)C(=O)O [Compound 5g] (HELM PEPTIDE1{C.[bAla].[O=C([C@H](Cc1cccc2ccccc12)N[*:1])[*:2]].L}$$$$V2.0)	–	–	–	< 500 nM	< 500 nM	IC50 [1, 9]: < 1000 nM; IC50 [1, 10]: < 1000 nM
CC(C)C[C@H](NC(=O)[C@H](Cc1cccc2ccccc12)NC(=O)C[C@@H](NC(=O)[C@@H](N)CS)C(N)=O)C(=O)O [Compound 5h] (HELM PEPTIDE1{[O=C([C@H](Cc1cccc2ccccc12)N[*:1])[*:2]].L}|PEPTIDE2{C.[dD].[am]}$PEPTIDE1,PEPTIDE2,1:R1-2:R3$$$V2.0)	–	–	–	< 500 nM	< 500 nM	IC50 [1, 9]: < 1000 nM; IC50 [1, 10]: < 1000 nM
CC(C)C[C@H](NC(=O)[C@H](Cc1cccc2ccccc12)NC(=O)CNC(=O)[C@@H](N)CS)C(=O)O [Compound 5i] (HELM PEPTIDE1{C.G.[O=C([C@H](Cc1cccc2ccccc12)N[*:1])[*:2]].L}$$$$V2.0)	–	–	< 500 nM	< 500 nM	< 500 nM	–
CC(C)C[C@H](NC(=O)[C@H](Cc1ccc2ccccc2c1)NC[C@@H](NC[C@@H](N)CS)C(C)C)C(=O)O [Compound 9]	–	–	–	< 100 nM	< 100 nM	IC50 [1, 9]: < 1000 nM; IC50 [1, 10]: < 1000 nM; IC50 [1, 11]: < 1000 nM; IC50 [2, 12]: < 100 nM
CC(C)C[C@H](NC(=O)c1ccc(NC[C@@H](N)CS)cc1-c1ccccc1)C(=O)O [Compound 17]	–	–	–	–	–	IC50 [1, 11]: < 10 nM; IC50 [2, 12]: < 10 nM
CC(C)C[C@@H](C(=O)O)N(C)C(=O)c1ccc(NC[C@@H](N)CS)cc1-c1ccccc1 [Compound 19]	–	–	–	–	–	IC50 [1, 11]: < 10 nM; IC50 [2, 12]: < 10 nM
CC(C)C[C@H](NC(=O)C1(c2ccccc2)CCN(C(=O)[C@@H](N)CS)CC1)C(=O)O [Compound 53a]	< 100 nM	< 100 nM	–	–	–	–
N[C@@H](CS)C(=O)N1CCC(C(=O)NCCCCc2ccccc2)(c2ccccc2)CC1 [Compound 53aa]	< 100 nM	> 1000 nM	–	–	–	–
N[C@@H](CS)C(=O)N1CCC(C(=O)NCc2ccccc2-c2ccccc2)(c2ccccc2)CC1 [Compound 53b]	< 100 nM	< 1000 nM	–	–	–	–
N[C@@H](CS)C(=O)N1CCC(C(=O)NCc2ccccc2)(c2ccccc2)CC1 [Compound 53bb]	< 100 nM	> 1000 nM	–	–	–	–
CC(C)CCNC(=O)C1(c2ccccc2)CCN(C(=O)[C@@H](N)CS)CC1 [Compound 53c]	< 100 nM	< 100 nM	–	–	–	–
N[C@@H](CS)C(=O)N1CCC(C(=O)NCCc2cccs2)(c2ccccc2)CC1 [Compound 53d]	< 500 nM	> 1000 nM	–	–	–	–
CCOC(=O)N1CCC(NC(=O)C2(c3ccccc3)CCN(C(=O)[C@@H](N)CS)CC2)CC1 [Compound 53l]	> 1000 nM	> 1000 nM	–	–	–	–

Compound	IC50 [1, 4]	IC50 [2, 5]	IC50 [1]	IC50 [2, 6]	IC50 [2, 7]	further results
N[C@@H](CS)C(=O)N1CCC(C(=O)NCCc2ccc(S(N)(=O)=O)cc2)(c2ccccc2)CC1 [Compound 53m]	> 1000 nM	> 1000 nM	–	–	–	–
N[C@@H](CS)C(=O)N1CCC(C(=O)NC2CCCCC2)(c2ccccc2)CC1 [Compound 53s]	< 500 nM	> 1000 nM	–	–	–	–
N[C@@H](CS)C(=O)N1CCC(C(=O)NCC2CCCO2)(c2ccccc2)CC1 (some centres unmarked) [Compound 53t]	< 100 nM	> 1000 nM	–	–	–	–
N[C@@H](CS)C(=O)N1CCC(C(=O)NCC(c2ccccc2)c2ccccc2)(c2ccccc2)CC1 [Compound 53y]	< 100 nM	< 500 nM	–	–	–	–
N[C@@H](CS)C(=O)N1CCC(C(=O)NCc2ccccc2)CC1 [Compound 59]	–	–	> 1000 nM	–	–	IC50 [2]: > 1000 nM
N[C@@H](CS)C(=O)N1CCC(C(=O)N(Cc2ccccc2)c2ccccc2)CC1 [Compound 60]	–	–	> 1000 nM	–	–	IC50 [2]: > 1000 nM
N[C@@H](CS)C(=O)N1CCC(C(=O)N(Cc2ccccc2)Cc2ccccc2)CC1 [Compound 61]	–	–	> 1000 nM	–	–	IC50 [2]: > 1000 nM
N[C@@H](CS)C(=O)N1CCC(C(=O)N(CCc2ccccc2)Cc2ccccc2)CC1 [Compound 62]	–	–	< 200 nM	–	–	IC50 [2]: > 1000 nM
CC1(C(=O)NCc2ccccc2)CCN(C(=O)[C@@H](N)CS)CC1 [Compound 63]	–	–	< 500 nM	–	–	IC50 [2]: > 1000 nM
N[C@@H](CS)C(=O)N1CCC(Cc2ccccc2)(C(=O)NCc2ccccc2)CC1 [Compound 64]	–	–	< 100 nM	–	–	IC50 [2]: > 1000 nM
CC(C)/C=C1\NC(=O)N(C2(c3ccccc3)CCN(C(=O)C(N)CS)CC2)C1=O (centres unmarked) [Compound 70]	–	–	< 50 nM	–	–	IC50 [2]: > 1000 nM
NC[C@H](NC(=O)[C@@H](N)CS)C(=O)NCc1ccc2c(c1)OCO2 [Compound 89d]	–	–	–	> 1000 nM	> 1000 nM	IC50 [1, 9]: > 1000 nM; IC50 [1, 10]: > 1000 nM
NC[C@H](NC(=O)[C@@H](N)CS)C(=O)NCC(=O)Nc1ccc2ccccc2c1 [Compound 89e] (HELM PEPTIDE1{C.[NC[C@H](N[*:1])C(=O)[*:2]].G.[c1ccc2cc(N[*:1])ccc2c1]}$$$$V2.0)	–	–	–	> 1000 nM	> 1000 nM	IC50 [1, 9]: > 1000 nM; IC50 [1, 10]: > 1000 nM
NC[C@H](NC(=O)[C@@H](N)CS)C(=O)N1CCC(Cc2ccccc2)CC1 [Compound 89f]	–	–	–	> 1000 nM	> 1000 nM	IC50 [1, 9]: < 1000 nM; IC50 [1, 10]: < 1000 nM
NC[C@H](NC(=O)[C@@H](N)CS)C(=O)N1CCN(C(c2ccc(F)cc2)c2ccc(F)cc2)CC1 [Compound 89g]	–	–	–	> 1000 nM	> 1000 nM	IC50 [1, 9]: < 500 nM; IC50 [1, 10]: < 500 nM
CC(C)C[C@@H](C(=O)O)N(C)C(=O)Cn1c(=O)n(C2CCN(C(=O)[C@@H](N)CS)CC2)c2ccccc21 [Compound 93]	> 1000 nM	> 1000 nM	–	–	–	–
CC(C)C[C@H](NC(=O)C1(c2ccccc2)CCN(C(=O)[C@@H](N)CS)CC1)C(=O)N[C@@H](C)C(=O)N[C@@H](C)C(=O)O [Compound 99b] (HELM PEPTIDE1{C.[O=C(C1(c2ccccc2)CCN([*:1])CC1)[*:2]].L.A.A}$$$$V2.0)	< 200 nM	> 500 nM	–	–	–	–
